The source made the active and inactive calls. The rule behind the calls is not given here.
Columns and labels:
[1] = target: Neuronal acetylcholine receptor; alpha4/beta2 (Rattus norvegicus, UniProt P09483+P12390); experiment: Displacement of [3H]cytisine from alpha-4-beta-2 in rat cerebral cortical membrane; assay type: cell membranes
[2] = target: Neuronal acetylcholine receptor; alpha4/beta2 (Homo sapiens, UniProt P17787+P43681); experiment: Agonist activity at […] in IMR-32cells assessed as calcium influx by FLIPR assay; assay type: functional
Sequence of Neuronal acetylcholine receptor; alpha4/beta2 (Homo sapiens, UniProt P17787+P43681) (P17787 whole entry): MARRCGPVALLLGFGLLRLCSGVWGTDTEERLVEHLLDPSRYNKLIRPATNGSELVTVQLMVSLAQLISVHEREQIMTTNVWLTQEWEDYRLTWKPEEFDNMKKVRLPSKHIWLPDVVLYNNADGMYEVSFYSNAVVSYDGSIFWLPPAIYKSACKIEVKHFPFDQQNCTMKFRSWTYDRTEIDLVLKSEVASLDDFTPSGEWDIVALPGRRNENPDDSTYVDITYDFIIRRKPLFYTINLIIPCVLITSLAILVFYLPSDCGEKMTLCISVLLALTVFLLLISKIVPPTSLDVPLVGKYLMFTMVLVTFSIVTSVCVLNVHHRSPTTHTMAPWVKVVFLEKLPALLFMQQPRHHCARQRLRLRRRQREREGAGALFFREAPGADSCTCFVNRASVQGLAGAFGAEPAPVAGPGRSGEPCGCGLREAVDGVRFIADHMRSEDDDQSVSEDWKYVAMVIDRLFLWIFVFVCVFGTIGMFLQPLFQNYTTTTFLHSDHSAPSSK
Sequence of Neuronal acetylcholine receptor; alpha4/beta2 (Homo sapiens, UniProt P17787+P43681) (P43681 whole entry): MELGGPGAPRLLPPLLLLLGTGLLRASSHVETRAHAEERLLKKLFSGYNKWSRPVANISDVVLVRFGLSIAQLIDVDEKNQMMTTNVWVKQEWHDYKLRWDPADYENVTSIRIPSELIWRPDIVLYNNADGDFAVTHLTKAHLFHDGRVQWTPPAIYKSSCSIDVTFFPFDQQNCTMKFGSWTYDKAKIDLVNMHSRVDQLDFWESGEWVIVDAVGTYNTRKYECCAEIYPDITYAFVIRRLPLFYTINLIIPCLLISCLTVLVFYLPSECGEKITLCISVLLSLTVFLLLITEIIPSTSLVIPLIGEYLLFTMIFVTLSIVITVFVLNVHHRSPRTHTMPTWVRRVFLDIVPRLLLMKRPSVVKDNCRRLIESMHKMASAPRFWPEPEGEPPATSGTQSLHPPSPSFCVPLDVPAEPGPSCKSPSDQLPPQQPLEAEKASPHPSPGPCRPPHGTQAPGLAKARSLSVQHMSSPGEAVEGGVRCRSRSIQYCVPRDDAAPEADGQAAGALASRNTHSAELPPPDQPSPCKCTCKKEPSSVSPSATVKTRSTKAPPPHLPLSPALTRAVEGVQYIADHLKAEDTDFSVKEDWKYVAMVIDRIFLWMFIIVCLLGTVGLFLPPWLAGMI

Striatum = experiment: Agonist activity at rat striatal tissue assessed as dopamine release; assay type: functional
Rattus norvegicus [3] = experiment: Antinociceptive effect in rat assessed as reduction of flinches up to 6.2 umol/kg, ip; assay type: functional, organism-based
Rattus norvegicus [4] = experiment: Effect on reversal of allodynia in rat chug model at 19 umol/kg, ip; assay type: functional, organism-based
[5] = Drug levels in Sprague-Dawley rat plasma at 6.2 umol/kg, ip after 15 mins; assay type: ADME, organism-based
[6] = Drug level in Sprague-Dawley rat brain at 6.2 umol/kg, ip after 15 mins; assay type: ADME, organism-based; conditions: read-out: Drug uptake
[7] = Drug level in Sprague-Dawley rat plasma at 6.2 umol/kg, ip after 30 mins; assay type: ADME, organism-based
[8] = Drug level in Sprague-Dawley rat plasma at 6.2 umol/kg, ip after 60 mins; assay type: ADME, organism-based
[9] = Drug level in Sprague-Dawley rat brain at 6.2 umol/kg, ip after 30 mins; assay type: ADME, organism-based; conditions: read-out: Drug uptake
[10] = Drug level in Sprague-Dawley rat at 6.2 umol/kg, ip after 60 mins; assay type: ADME, organism-based; conditions: brain, read-out: Drug uptake
Mus musculus [11] = experiment: Effect on hypolocomotion in mouse at 6.2 umol/kg, ip; assay type: functional, organism-based
Mus musculus [12] = experiment: Effect on urination in mouse at 6.2 umol/kg, ip; assay type: functional, organism-based
Mus musculus [13] = experiment: Effect on head weaving in mouse at 6.2 umol/kg, ip; assay type: functional, organism-based
Rattus norvegicus [14] = experiment: Antinociceptive effect on rat assessed as increased latency to paw withdrawal in response to noxious thermal stimulus at 0.62 umol/kg, ip; assay type: functional, organism-based
Rattus norvegicus [15] = experiment: Antinociceptive effect on rat assessed as reduction of flinches up to 1.9 umol/kg, ip; assay type: functional, organism-based
Rattus norvegicus [16] = species: Rattus norvegicus; experiment: Reversal of mechanically-stimulated hyperalgesia in spinal nerve ligated rat chung model; assay type: functional, organism-based
Mus musculus [17] = experiment: Induction of seizure in mouse at 62 umol/kg, ip; assay type: functional, organism-based
[18] = Rattus norvegicus, Striatum, read-out: EC50
[19] = Rattus norvegicus, Striatum, read-out: Log EC50 (converted)

Sequence of Neuronal acetylcholine receptor; alpha4/beta2 (Rattus norvegicus, UniProt P09483+P12390) (P09483 whole entry): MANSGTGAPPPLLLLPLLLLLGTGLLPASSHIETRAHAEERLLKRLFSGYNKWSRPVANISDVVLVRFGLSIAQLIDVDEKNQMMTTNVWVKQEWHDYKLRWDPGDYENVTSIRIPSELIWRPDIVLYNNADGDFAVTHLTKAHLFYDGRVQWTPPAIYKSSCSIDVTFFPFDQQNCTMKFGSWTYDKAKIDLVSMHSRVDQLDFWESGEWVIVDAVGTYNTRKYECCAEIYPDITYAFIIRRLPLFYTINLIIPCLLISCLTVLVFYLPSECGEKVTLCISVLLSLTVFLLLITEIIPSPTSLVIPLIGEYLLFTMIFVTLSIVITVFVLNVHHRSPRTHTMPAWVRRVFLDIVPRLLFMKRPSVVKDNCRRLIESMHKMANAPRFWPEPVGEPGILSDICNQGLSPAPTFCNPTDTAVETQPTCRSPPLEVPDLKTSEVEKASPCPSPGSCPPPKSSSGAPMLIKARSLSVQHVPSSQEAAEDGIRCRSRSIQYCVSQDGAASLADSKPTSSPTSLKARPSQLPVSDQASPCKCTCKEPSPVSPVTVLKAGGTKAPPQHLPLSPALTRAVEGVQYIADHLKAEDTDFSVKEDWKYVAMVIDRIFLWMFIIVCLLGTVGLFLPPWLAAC
Sequence of Neuronal acetylcholine receptor; alpha4/beta2 (Rattus norvegicus, UniProt P09483+P12390) (P12390 whole entry): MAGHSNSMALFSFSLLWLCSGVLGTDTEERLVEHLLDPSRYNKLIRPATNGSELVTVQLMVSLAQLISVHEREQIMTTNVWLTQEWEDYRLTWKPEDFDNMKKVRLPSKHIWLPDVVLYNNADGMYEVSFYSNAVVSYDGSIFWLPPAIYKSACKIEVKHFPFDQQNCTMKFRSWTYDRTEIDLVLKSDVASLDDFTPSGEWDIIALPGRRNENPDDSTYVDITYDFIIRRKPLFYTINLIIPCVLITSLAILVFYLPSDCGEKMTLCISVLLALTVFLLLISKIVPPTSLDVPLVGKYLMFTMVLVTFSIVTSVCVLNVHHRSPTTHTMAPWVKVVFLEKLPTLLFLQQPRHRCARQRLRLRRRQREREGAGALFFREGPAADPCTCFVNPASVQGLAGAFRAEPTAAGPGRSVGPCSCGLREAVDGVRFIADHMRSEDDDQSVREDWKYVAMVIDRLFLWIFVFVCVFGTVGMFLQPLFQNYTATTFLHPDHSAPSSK

Compound | Ki ([1]; read-out: Ki) [nM] | EC50 ([2]; read-out: EC50) [nM] | other results
Cc1nsc(N2C[C@H]3C[C@@H]2CN3)n1 | 350 | – | –
c1cnnc(N2C[C@@H]3C[C@H]2CN3)c1 | 120 | – | –
c1ccc(N2C[C@@H]3C[C@H]2CN3)nc1 | 980 | – | –
c1cncc(N2CC3CCC2CN3)c1 (stereo not drawn) | 0.02 | 280 | –
Nc1ccc(N2CC3CC2CN3)cn1 (stereo not drawn) | 20 | 31000 | –
Clc1cc(N2C[C@H]3C[C@@H]2CN3)cnc1Cl | 0.018 | 550 | EC50 (Striatum; [18]): 16 nM; EC50 (Striatum; [19]): 16.2 nM
Cc1ccc(N2C[C@@H]3C[C@H]2CN3)cn1 | 1.6 | 1700 | EC50 (Striatum; [18]): 350 nM; EC50 (Striatum; [19]): 347 nM
Clc1ccc(C2CC3CCC2N3)cn1 (stereo not drawn) [EPIBATIDINE] | – | – | EC50 (Striatum; [18]): 0.83 nM; EC50 (Striatum; [19]): 0.832 nM
Oc1cc(N2C[C@H]3C[C@@H]2CN3)cnc1Cl | 0.17 | 3200 | Activity (Rattus norvegicus [3]): Active; Activity (Rattus norvegicus [4]): inactive; Log EC50 (Striatum): -8.42; EC50 (Striatum; read-out: EC50): 3.8 nM; concentration at 0.25 h [5]: 458 ng/mL; concentration at 0.25 h [6]: 29 ng/g; concentration at 0.5 h [7]: 289 ng/mL; concentration at 1 h [8]: 131 ng/mL; concentration at 0.5 h [9]: 22 ng/g; concentration at 1 h [10]: 10 ng/g
Cc1cc(N2C[C@@H]3C[C@H]2CN3)nnc1Cl | 3.8 | – | –
FC(F)(F)c1cncc(N2C[C@H]3C[C@@H]2CN3)c1 | 490 | – | –
CCN1C[C@@H]2C[C@H]1CN2c1ccc(Cl)nc1 | 34 | – | –
c1cncc(N2CC3CNC(C3)C2)c1 (stereo not drawn) | 0.047 | 72 | –
COc1cc(N2C[C@H]3C[C@@H]2CN3)cnc1Cl | 0.1 | 4300 | –
c1cncc(N2C[C@H]3C[C@@H]2CN3)c1 | 0.018 | 370 | –
c1cncc(CN2C[C@H]3C[C@@H]2CN3)c1 | 56 | – | –
O=[N+]([O-])c1ccc(N2C[C@@H]3C[C@H]2CN3)cn1 | 110 | 11000 | –
Clc1ccc(N2CC3CC2CCN3)cn1 (stereo not drawn) | 2.8 | 7440 | –
Clc1nnc(N2C[C@@H]3C[C@H]2CN3)c2ccccc12 | 1900 | – | –

Compound | Ki ([1]; read-out: Ki) [nM] | EC50 ([2]; read-out: EC50) [nM] | other results
c1cncc(N2CC3CNCC2C3)c1 (stereo not drawn) | 0.065 | 1600 | –
NCc1cncc(N2C[C@@H]3C[C@H]2CN3)c1 | 140 | 20000 | –
CN1C[C@@H]2C[C@H]1CN2c1ccc(Cl)nc1 | 1.3 | – | –
c1ncc(N2C[C@@H]3C[C@H]2CN3)cn1 | 0.95 | – | –
Cc1cc(N2C[C@@H]3C[C@H]2CN3)sn1 | 4.9 | – | –
c1ccc(N2C[C@@H]3C[C@H]2CN3)cc1 | 1000 | – | –
N#Cc1cncc(N2C[C@@H]3C[C@H]2CN3)c1 | 1.7 | 24000 | Ki ([1]; read-out: Log Ki (converted)): 1.62 nM; Log EC50 (Striatum): -7.64; EC50 (Striatum; read-out: EC50): 23 nM
Clc1cc(N2CC3CC2CN3)ncn1 (stereo not drawn) | 52 | – | –
Fc1ccc(N2C[C@@H]3C[C@H]2CN3)cn1 | 0.17 | 3700 | Ki ([1]; read-out: Log Ki (converted)): 0.141 nM; Log EC50 (Striatum): -7.72; EC50 (Striatum; read-out: EC50): 19 nM
O=[N+]([O-])c1ccc(N2C[C@@H]3C[C@H]2CN3)cc1 | 67 | – | –
COc1ccc(N2C[C@H]3C[C@@H]2CN3)cn1 | 0.25 | 850 | –
c1csc(N2C[C@@H]3C[C@H]2CN3)n1 | 2300 | – | –
CN1CCC[C@H]1c1cccnc1 [NICOTINE] | – | – | EC50 (Striatum; [18]): 200 nM; EC50 (Striatum; [19]): 200 nM
NC(=O)c1cncc(N2C[C@@H]3C[C@H]2CN3)c1 | 24 | 25000 | –
C[N+]1(C)CC2CC1CN2c1ccc(Cl)nc1 (stereo not drawn) | 0.2 | 1500 | –
Oc1cncc(N2C[C@H]3C[C@@H]2CN3)c1 | 0.035 | 2600 | Log EC50 (Striatum): -8.24; EC50 (Striatum; read-out: EC50): 5.7 nM
Oc1cc(N2C[C@@H]3C[C@H]2CN3)cnc1Cl | 1.6 | 35000 | Log EC50 (Striatum): -7.3; EC50 (Striatum; read-out: EC50): 51 nM
c1ccc2ncc(N3C[C@@H]4C[C@H]3CN4)cc2c1 | 17 | – | –
c1cnc2cc(N3C[C@H]4C[C@@H]3CN4)sc2c1 | 0.83 | – | –

Compound | Ki ([1]; read-out: Ki) [nM] | EC50 ([2]; read-out: EC50) [nM] | other results
Cc1cc(N2C[C@H]3C[C@@H]2CN3)cnc1Cl | 0.014 | 180 | –
c1cnc2c(N3C[C@H]4C[C@@H]3CN4)csc2c1 | 280 | – | –
O=S(=O)(c1cnc(Cl)c(Br)c1)N1C[C@H]2C[C@@H]1CN2 | 17 | – | –
O=C1C2CC(CN2)N1c1ccc(Cl)nc1 (stereo not drawn) | > 10000 | – | Ki ([1]; read-out: Log Ki (converted)): > 100000 nM
COc1cncc(N2C[C@@H]3C[C@H]2CN3)c1 | 0.53 | 30000 | Log EC50 (Striatum): -7.09; EC50 (Striatum; read-out: EC50): 81 nM
Fc1cccc(N2C[C@@H]3C[C@H]2CN3)c1 | 250 | – | –
O=[N+]([O-])c1cccc(N2C[C@@H]3C[C@H]2CN3)c1 | 600 | – | –
NC(=O)c1cncc(N2C[C@H]3C[C@@H]2CN3)c1 | 0.83 | 28000 | EC50 (Striatum; [18]): 30 nM; EC50 (Striatum; [19]): 30.2 nM
Clc1ccc(N2C[C@@H]3C[C@H]2CN3)cc1 | 22 | – | –
c1cncc(N2C[C@@H]3C[C@H]2CN3)c1 | 0.15 | 6400 | EC50 (Striatum; [18]): 138 nM; EC50 (Striatum; [19]): 138 nM
Fc1ccc(N2C[C@H]3C[C@@H]2CN3)cn1 | 0.028 | 160 | EC50 ([2]; read-out: Log EC50 (converted)): 1.62 nM; Log EC50 (Striatum): -6.7; EC50 (Striatum; read-out: EC50): 1.6 nM
Clc1ccc(N2C[C@H]3C[C@@H]2CN3)cn1 | 0.018 | 140 | Log EC50 (Striatum): -8.6; EC50 (Striatum; read-out: EC50): 2.5 nM
O=C(c1ccc(Cl)nc1)N1C[C@H]2C[C@@H]1CN2 | 590 | – | –
c1ccc2nc(N3C[C@@H]4C[C@H]3CN4)ccc2c1 | 4000 | – | –
Oc1cncc(N2C[C@@H]3C[C@H]2CN3)c1 | 4 | > 100000 | Log EC50 (Striatum): -7.6; EC50 (Striatum; read-out: EC50): 28 nM
N#Cc1cncc(N2C[C@H]3C[C@@H]2CN3)c1 | 0.027 | 980 | Log EC50 (Striatum): -9.1; EC50 (Striatum; read-out: EC50): 0.8 nM
Clc1ccc(N2C[C@@H]3C[C@H]2CN3)cn1 | 0.1 | 450 | Activity (Mus musculus [11]): Active; Activity (Mus musculus [12]): Active; Activity (Mus musculus [13]): Active; Log EC50 (Striatum): -8.28; EC50 (Striatum; read-out: EC50): 5.3 nM; Activity (Rattus norvegicus [14]): Active; Activity (Rattus norvegicus [15]): Active; Activity (Rattus norvegicus [16]): Active; Activity (Mus musculus [17]): Active
COc1cncc(N2C[C@H]3C[C@@H]2CN3)c1 | 0.12 | 5700 | Log EC50 (Striatum): -7.7; EC50 (Striatum; read-out: EC50): 20 nM
